How the values were obtained:
Format in all cases: in vivo
[1] = system: Amaranthus retoflexus (AMARE); test: B1 Post-emergence efficacy Test 1; settings: post-emergence application, 1000 g/ha, evaluated after 13 days
In short: (§1)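 Damage ratings on a 1–5 scale (5=80-100%, 4=60-79%, 3=40-59%, 2=20-39%, 1=0-19%) come from visual assessment 13 days after spraying. Plants were treated at 8 days post-sowing with 1000 g/ha in acetone/water (50:50) containing 0.5% Tween 20.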

[2] = system: Echinochloa crus-galli (ECHCG); test: B1 Post-emergence efficacy Test 1; settings: post-emergence application, 1000 g/ha, evaluated after 13 days
In short: as §1

[3] = system: Ipomoea hederacea (IPOHE); test: B1 Post-emergence efficacy Test 1; settings: post-emergence application, 1000 g/ha, evaluated after 13 days
In short: as §1

Lolium perenne (LOLPE) = test: B1 Post-emergence efficacy Test 1; settings: post-emergence application, 1000 g/ha, evaluated after 13 days
In short: as §1

Setaria faberi (SETFA) = test: B1 Post-emergence efficacy Test 1; settings: post-emergence application, 1000 g/ha, evaluated after 13 days
In short: as §1

Solanum nigrum (SOLNI) = test: B1 Post-emergence efficacy Test 1; settings: post-emergence application, 1000 g/ha, evaluated after 13 days
In short: as §1

[4] = system: cool season plant species; test: B2 Post-emergence efficacy Test 2, cool season plant species; settings: 15 days after application, 0=no damage, 100=total kill
Experimental: Seeds of a variety of test species (see Table B1) were sown in standard soil in pots. After cultivation for 12 days (post-emergence) under controlled conditions in a glasshouse (at 24/18° C. or 20/16° C., at day/night; 16 hours light; 65% humidity), the plants were sprayed with an aqueous spray solution derived from the formulation of the technical active ingredient dissolved in IF50 (see Table B2 for composition) and adjuvant (Genapol XO80) was added to the spray solution at a rate of 0.2% v/v. [table] [table] After application, the test plants were grown in a glasshouse under controlled conditions (as above) and watered twice daily. Herbicidal activity was evaluated 15 days after application on a 0-100 scale. The results, where 0=no damage to test plant and 100=total kill of test plant are shown below in Tables 6 to 9.

## Cc1nn(C)c(=O)c(-c2c(F)ccc(Cl)c2CCc2ccccc2C(F)(F)F)c1O [Compound 1.066]
[1]
  percentage damage caused to the plant, five point scale, AMARE: 5 (5=80-100%)
[2]
  percentage damage caused to the plant, five point scale, ECHCG: 5 (5=80-100%)
[3]
  percentage damage caused to the plant, five point scale, IPOHE: 5 (5=80-100%)
Lolium perenne (LOLPE)
  percentage damage caused to the plant, five point scale, LOLPE: 4 (4=60-79%)
Setaria faberi (SETFA)
  percentage damage caused to the plant, five point scale, SETFA: 5 (5=80-100%)
Solanum nigrum (SOLNI)
  percentage damage caused to the plant, five point scale, SOLNI: 5 (5=80-100%)
[4]; 15 g/Ha
  Herbicidal activity (0-100 scale) ALOMY: 20
  Herbicidal activity (0-100 scale) AVEFA: 0
  Herbicidal activity (0-100 scale) BEAVA: 80
  Herbicidal activity (0-100 scale) BROTE: 0
  Herbicidal activity (0-100 scale) BRSNN: 90
  Herbicidal activity (0-100 scale) GALAP: 20
  Herbicidal activity (0-100 scale) HORVW: 0
  Herbicidal activity (0-100 scale) KCHSC: 0
  Herbicidal activity (0-100 scale) LOLPE: 10
  Herbicidal activity (0-100 scale) POAAN: 20
  Herbicidal activity (0-100 scale) POLCO: 70
  Herbicidal activity (0-100 scale) SINAR: 60
  Herbicidal activity (0-100 scale) STEME: 80
  Herbicidal activity (0-100 scale) TRZAW: 0
  Herbicidal activity (0-100 scale) VERPE: 80
[4]; 30 g/Ha
  Herbicidal activity (0-100 scale) ALOMY: 50
  Herbicidal activity (0-100 scale) AVEFA: 20
  Herbicidal activity (0-100 scale) BEAVA: 80
  Herbicidal activity (0-100 scale) BROTE: 20
  Herbicidal activity (0-100 scale) BRSNN: 90
  Herbicidal activity (0-100 scale) CHEAL: 90
  Herbicidal activity (0-100 scale) GALAP: 20
  Herbicidal activity (0-100 scale) HORVW: 10
  Herbicidal activity (0-100 scale) KCHSC: 0
  Herbicidal activity (0-100 scale) LOLPE: 20
  Herbicidal activity (0-100 scale) POAAN: 70
  Herbicidal activity (0-100 scale) POLCO: 80
  Herbicidal activity (0-100 scale) SINAR: 60
  Herbicidal activity (0-100 scale) STEME: 60
  Herbicidal activity (0-100 scale) TRZAW: 10
  Herbicidal activity (0-100 scale) VERPE: 90
[4]; 60 g/Ha
  Herbicidal activity (0-100 scale) ALOMY: 70
  Herbicidal activity (0-100 scale) AVEFA: 40
  Herbicidal activity (0-100 scale) BEAVA: 80
  Herbicidal activity (0-100 scale) BROTE: 60
  Herbicidal activity (0-100 scale) BRSNN: 90
  Herbicidal activity (0-100 scale) CHEAL: 90
  Herbicidal activity (0-100 scale) GALAP: 20
  Herbicidal activity (0-100 scale) HORVW: 20
  Herbicidal activity (0-100 scale) KCHSC: 0
  Herbicidal activity (0-100 scale) LOLPE: 80
  Herbicidal activity (0-100 scale) POAAN: 80
  Herbicidal activity (0-100 scale) POLCO: 90
  Herbicidal activity (0-100 scale) SINAR: 80
  Herbicidal activity (0-100 scale) STEME: 90
  Herbicidal activity (0-100 scale) TRZAW: 40
  Herbicidal activity (0-100 scale) VERPE: 100
[4]; 125 g/Ha
  Herbicidal activity (0-100 scale) ALOMY: 80
  Herbicidal activity (0-100 scale) AVEFA: 90
  Herbicidal activity (0-100 scale) BEAVA: 80
  Herbicidal activity (0-100 scale) BROTE: 70
  Herbicidal activity (0-100 scale) BRSNN: 90
  Herbicidal activity (0-100 scale) CHEAL: 90
  Herbicidal activity (0-100 scale) GALAP: 20
  Herbicidal activity (0-100 scale) HORVW: 70
  Herbicidal activity (0-100 scale) KCHSC: 10
  Herbicidal activity (0-100 scale) LOLPE: 90
  Herbicidal activity (0-100 scale) POAAN: 90
  Herbicidal activity (0-100 scale) POLCO: 90
  Herbicidal activity (0-100 scale) SINAR: 90
  Herbicidal activity (0-100 scale) STEME: 90
  Herbicidal activity (0-100 scale) TRZAW: 60
  Herbicidal activity (0-100 scale) VERPE: 100
[4]; 250 g/Ha
  Herbicidal activity (0-100 scale) ALOMY: 90
  Herbicidal activity (0-100 scale) AVEFA: 90
  Herbicidal activity (0-100 scale) BEAVA: 80
  Herbicidal activity (0-100 scale) BROTE: 80
  Herbicidal activity (0-100 scale) BRSNN: 90
  Herbicidal activity (0-100 scale) CHEAL: 100
  Herbicidal activity (0-100 scale) GALAP: 30
  Herbicidal activity (0-100 scale) HORVW: 80
  Herbicidal activity (0-100 scale) KCHSC: 20
  Herbicidal activity (0-100 scale) LOLPE: 90
  Herbicidal activity (0-100 scale) POAAN: 90
  Herbicidal activity (0-100 scale) POLCO: 100
  Herbicidal activity (0-100 scale) SINAR: 90
  Herbicidal activity (0-100 scale) STEME: 90
  Herbicidal activity (0-100 scale) TRZAW: 70
  Herbicidal activity (0-100 scale) VERPE: 100
[4]; 500 g/Ha
  Herbicidal activity (0-100 scale) ALOMY: 90
  Herbicidal activity (0-100 scale) AVEFA: 90
  Herbicidal activity (0-100 scale) BEAVA: 90
  Herbicidal activity (0-100 scale) BROTE: 90
  Herbicidal activity (0-100 scale) BRSNN: 90
  Herbicidal activity (0-100 scale) CHEAL: 100
  Herbicidal activity (0-100 scale) GALAP: 90
  Herbicidal activity (0-100 scale) HORVW: 90
  Herbicidal activity (0-100 scale) KCHSC: 20
  Herbicidal activity (0-100 scale) LOLPE: 100
  Herbicidal activity (0-100 scale) POAAN: 90
  Herbicidal activity (0-100 scale) POLCO: 100
  Herbicidal activity (0-100 scale) SINAR: 90
  Herbicidal activity (0-100 scale) STEME: 100
  Herbicidal activity (0-100 scale) TRZAW: 80
  Herbicidal activity (0-100 scale) VERPE: 100

— patent publication US12162840B2, “Herbicidal compositions” (SYNGENTA PARTICIPATIONS AG, priority 2018, dated 2024)
